The conditions of series [1]: mice.
In series [2] the test system is mouse tongue epithelium. The series is described as follows: prevention of radiation-induced mucositis (25 Gy to the mouse snout). Format: in vivo. Particulars: 25 Gy to mouse snout Day 0; 5 doses of 25 mg/kg IV every second day. As for the experimental part:
RIVPA (SEQ ID NO. 5) and other IDRs modulate the innate defense response to tissue injury, reducing the severity of damage caused by the inflammatory cascade and enhancing resolution of disease. As described above, IDRs can mitigate the response to radiation damage in an oral mucositis model (FIG. 1, FIG. 2). […] Progressive thinning of the mouse tongue was assessed on Days 0, 2, 4, 6, 8, and 10 by histopathological analysis of the number of basal and suprabasal apoptotic, mitotic and total epithelial cells per unit area and per unit length. It is noted that the dose of radiation used (25 Gy) was chosen such that progressive thinning of the tongue epithelium was observed but no overt mucositis occurred.

The subject of series [3] is healthy volunteers. The experiment in a line: Phase 1 study in healthy volunteers, safety (SAD and MAD). Format: in vivo, human. An excerpt:
Clinical experience with RIVPA (SEQ ID NO. 5) was obtained in a Phase 1 Study. The primary objective of the study was to determine the maximum tolerated dose (MTD) of single and repeat ascending doses of RIVPA (SEQ ID NO. 5) injectable solution following IV administration in healthy volunteers. The secondary objectives of this study included the assessment of the dose limiting toxicity (DLT), safety, PK and pharmacodynamic (PD) profiles of RIVPA (SEQ ID NO. 5) after single and repeated ascending IV doses of RIVPA (SEQ ID NO. 5). The study was divided into 2 phases: a single-ascending dose (SAD) phase and a multiple-ascending dose (MAD) phase.
Single IV doses of RIVPA (SEQ ID NO. 5) were well tolerated up to the maximum tested (8 mg/kg) and daily IV doses were well tolerated up to the maximum tested (6.5 mg/kg for 7 days).
The most frequently reported TEAEs (observed in more than one subject who received RIVPA (SEQ ID NO. 5) and in a higher proportion (%) than placebo subjects) were study treatment procedure-related events (General Disorders and Administration Site Conditions) such as vessel puncture site haematoma, vessel puncture site reaction and vessel puncture site pain. All vessel puncture-related events were mild and determined to be unrelated to study treatment by the QI. The second most frequently reported TEAEs were Nervous System Disorders, specifically headache and dizziness; these events were only mild to moderate. All other TEAEs were reported by only 1 subject at any given dose level (maximum of 3 dose levels).
The incidence of “possibly-related” events was also higher in the 2 highest dose levels. However, due to the small sample sizes (4 subjects received active treatment in each cohort), it was not possible to conclude whether the results definitely represented a dose-response. The majority of the TEAEs were not related to study treatment and were mild in severity with only one event reported as moderate. The most frequently reported TEAEs for subjects who received RIVPA (SEQ ID NO. 5) were General Disorders and Administration Site Conditions (i.e., procedure-related events) such as vessel puncture site haematoma, vessel puncture site reaction, and vessel puncture site pain. All vessel puncture-related events were mild and judged to be unrelated to treatment. Increased alanine aminotransferase (ALT) and back pain were reported by 3 (15.0%) subjects who received RIVPA (SEQ ID NO. 5) and these events were observed by only one (10.0%) subject who received the placebo.

Series [4] concerns male Golden Syrian hamsters. The series is described as follows: radiation-induced oral mucositis in hamsters (fractionated radiation). It counts as in vivo, hamster. The settings on record: for duration of severe oral mucositis: fractionated radiation model. As for the experimental part:
These studies confirmed that optimal dosing of RIVPA (SEQ ID NO. 5) involves dosing every third day and that the 25 mg/kg dose level is effective. In this model, cannulated male Golden Syrian hamsters were treated with 7.5 Gy of radiation, directed at the everted left cheek pouch, on Days 0, 1, 2, 3, 6, 7, 8 and 9. Mucositis was evaluated every second day between Days 7 and 35, with peak mucositis severity generally occurring around Day 19. In the first study, RIVPA (SEQ ID NO. 5) (25 mg/kg IV) was administered either every third day starting on Day 0 and continuing until Day 33 (Q3d d0-33), or on days of radiation therapy (Days 0, 1, 2, 3, […], 7, 8, 9) or every third day starting on Day 6 and continuing to Day 24 (Q3d d6-24). On days where both RIVPA (SEQ ID NO. 5) and radiation was administered, RIVPA (SEQ ID NO. 5) was given 2 hours after radiation. […] A follow-up study was undertaken to evaluate dosing with 25 mg/kg IV RIVPA (SEQ ID NO. 5) Q3d d0-33, on days of radiation, or every third day during radiation treatment (i.e., Days 0, 3, 6 and 9).

Series [5] can be described thus: Phase 1 study, human pharmacokinetics. It counts as in vivo. As for the experimental part:
In the single-dose phase of a healthy volunteer Phase 1 trial, RIVPA (SEQ ID NO. 5) was rapidly eliminated, with plasma levels decreasing to less than 10 percent of the maximum concentration (Cmax) within 9 min after the start of the 4-minute IV infusion. Following the rapid decline, a slower elimination phase was observed. […] Maximum plasma concentrations and total exposure levels were dose-proportional and clearance of RIVPA (SEQ ID NO. 5) from the circulation was rapid, consistent with the mouse and NHP experience.
In light of the high clearance and short elimination half-life, accumulation following daily injection was not expected to occur.

The mark [6] stands for this setting: multiple ascending dose phase, subjects who received RIVPA.

Where no end group is shown, it is not given here. Where only a bound is given, the exact number is not on record here.

As for RIVPA-NH2 [RIVPA (SEQ ID NO. 5), RIVPA], the “PK clearance from the circulation” value in series [1] is listed as “within minutes”. Besides, the “disease progression (progressive thinning of the mouse tongue)” value in series [2] was “did not have any significant impact”. In addition, the “vital sign measurements, clinical laboratory or ECG results versus placebo” value in series [3] (Phase 1) is given as “No safety concerns or significant differences”. Moreover, the “deaths and serious Adverse Events” value in series [3] (Phase 1, SAD and MAD) was “no deaths and no clinically significant, severe, or serious Adverse Events”. Further, the “dose limiting toxicities (DLTs)” value in series [3] (Phase 1, SAD and MAD) is listed as “no dose limiting toxicities”. Besides, in series [3] (either phase of the trial), the MTD entry is reported as “not reached”. Further, the “daily IV doses well tolerated up to the maximum tested” value in series [3] (healthy volunteers, daily for 7 days) is ≤ 6.5 mg/kg. In series [3] (healthy volunteers, single-ascending dose phase), the “single IV doses well tolerated up to the maximum tested” value is given as ≤ 8 mg/kg. The “incidence of TEAEs” value in series [3] (multiple ascending dose phase, 4.5 and 6.5 mg/kg/day) is “highest incidence”; in series [3] (single ascending dose phase) it was “not dose-related”. Moreover, the “Increased alanine aminotransferase (ALT)” value in series [3] (setting [6]) is listed as 3 (15.0%) subjects. Moreover, the back pain in series [3] (setting [6]) is listed as 3 (15.0%) subjects. The “treatment effectiveness on mucositis” value is on record as “most effective” in series [4] (first study, 25 mg/kg IV every third day Day 0 to Day 33 (Q3d d0-33)); “not beneficial” in series [4] (first study, 25 mg/kg IV every third day Day 6 to Day 24 (Q3d d6-24)); “most effective” in series [4] (first study, 25 mg/kg IV on days of radiation); “optimal” in series [4] (follow-up study, 25 mg/kg IV every third day during radiation (Days 0, 3, 6 and 9)). Besides, the “duration of severe oral mucositis” value in series [4] (FIG. 1) is listed as “reduces”; in series [4] (optimized dosing regimen, FIG. 2) it was “reduces”. Moreover, in series [4] (hamster, 7.5 Gy to left cheek pouch on Days 0, 1, 2, 3, 6, 7, 8 and 9, RIVPA IV), the “severity and duration of mucositis” value is “significantly reduced”. For the same substance, the pre-dose concentrations entry in series [5] (daily for 7 days, Days 5, 6, 7 and Day 8 (24 h after start of infusion on Day 7), all subjects) is listed as “below the lower limit of quantitation (LLOQ)”. In series [5] (human subjects, IV administration), the “clearance from the circulation” value is on record as “within minutes”. The Tmax in series [5] (human, plasma, intravenous, after the start of infusion, dose range 0.15 mg/kg to 8 mg/kg, read-out: mean time of maximum concentration (Tmax)) lay within 4 to 4.8 min. Further, the “maximum plasma concentrations and total exposure levels versus dose” value in series [5] (single-dose phase) is on record as “dose-proportional”. The “plasma levels relative to the maximum concentration (Cmax)” value in series [5] (within 9 min after the start of the 4-minute IV infusion, single-dose phase) is on record as “less than 10%”.

For the origin of these results see patent US11311598B2, “Peptides and analogs for use in the treatment of oral mucositis” (Soligenix, Inc., priority 2013, dated 2022).
